Experimental data taken from US8420631B2, “6-substituted-2,3,4,5-tetrahydro-1H-benzo[d]azepines as 5-HT2C receptor agonists” (Eli Lilly and Company, priority 2005, dated 2013).

Legend:
Wistar rats [1] = conditions: general statement on standards; cited from earlier work
male NIH Swiss mice [2] = experiment: Marble burying assay; assay type: in vivo, mouse; conditions: with rotorod performance
Excerpt: Marble burying in mice has been used to model anxiety disorders including obsessive-compulsive disorders (OCD) due to ethological study of the behavior (e.g. Gyertyan I. “Analysis of the marble burying response: Marbles serve to measure digging rather than evoke burying”, Behavioural Pharmacology 6: 24-31, (1995)) and due to the pharmacological effects of clinical standards (c.f., Njung'E K. Handley S L. “Evaluation of marble-burying behavior as a model of anxiety”, Pharmacology, Biochemistry & Behavior. 38: 63-67, (1991)); Borsini F., Podhorna J., and Marazziti, D. “Do animal models of anxiety predict anxiolytic effects of antidepressants?”, Psychopharmacology 163: 121-141, (2002)).
House experimentally-naïve male, NIH Swiss mice (Harlan Sprague-Dawley, Indianapolis, Ind.) weighing between 28-35 g in groups of 12 for at least three days prior to testing in a vivarium with 12 h light and dark cycles. Conduct experiments during the light cycle in a dimly lit experimental testing room. Dose mice with vehicle or test compound and, after a specified pretreatment interval (generally 30 min.), place each mouse individually on a rotorod (Ugo Basile 7650) operating at a speed of 6 revolutions/min. and observe for falling. […]
Clinically effective standard compounds suppress marble burying at doses that are devoid of motor-impairing effects as measured on the rotorod. […]

male NIH Swiss mice [3] = experiment: Nestlet shredding; assay type: in vivo, mouse; conditions: with rotorod / motor effects
Excerpt: Mice naturally will construct nests of material available in their living environment. Since this behavior is obsessive in nature, it has been used to model OCD (Xia Li, Denise Morrow and Jeffrey M. Witkin, “Decreases in nestlet shredding of mice by serotonin uptake inhibitors: comparison with marble burying”, Psychopharmacology, submitted Jul. 14, 2003). House experimentally-naïve male, NIH Swiss mice (Harlan Sprague-Dawley, Indianapolis, Ind.) weighing between 28-35 g in groups of 12 for at least three days prior to testing in a vivarium with a 12 h light/dark cycle. Conduct experiments during the light cycle in an experimental room with normal overhead fluorescent lighting. Dose mice with vehicle or test compound and after a specified pretreatment interval (generally 30 min.), place the mice individually in a 17×28×12 cm high plastic tub with about 5 mm sawdust shavings on the floor along with a pre-weighed multi-ply gauze pad (51 mm square). After 30 min., weigh the remainder of the gauze pad not removed by the mouse. Determine the weight of the gauze used for nestlet construction by subtraction. Compare the results for test compound treated mice to the results for vehicle control treated mice with Dunnett's test.
Clinically effective OCD treatment standard compounds suppress nestlet shredding at doses that are devoid of motor-impairing effects as measured by the rotorod test. […]

Wistar rats [4] = experiment: Schedule-induced polydipsia; conditions: rat, in vivo
Excerpt: Food-deprived rats exposed to intermittent presentations of food will drink amounts of water that are far in excess of their normal daily intake and in excess of their intake when given all of their food at one time (Falk J L. “Production of polydipsia in normal rats by an intermittent food schedule”, Science 133: 195-196, (1961)). This excessive behavior is persistent and has been used to model OCD.
Maintain Wistar rats on a food restricted diet (to maintain 85% free feeding weight), but with free access to water. Train the rats in a behavioral testing chamber to press a lever to receive a food pellet under a fixed interval schedule, such that the rats are rewarded with a 45 mg food pellet the first time they press a lever after a 120 second interval has elapsed. The fixed interval is then reset to 120 seconds and the process repeated. Thus, during a 90 min. test session, the rats can earn a maximum of 45 pellets. The behavioral chamber is also equipped with a water bottle that is weighed before and after the session to determine the amount of water consumed.
Administer test compounds on Tuesdays and Fridays. […] Compare the rates of lever pressing and water consumption for each animal's performance during sessions after test compound treatment with that animal's performance during control sessions, expressed as a percent of the control rate. […]

male NIH Swiss mice [5] = conditions: background statement; cited from earlier work

In the case of `CN(C)CCCN1c2ccccc2CCc2ccc(Cl)cc21` [chlomipramine], the “schedule-induced polydipsia, clinically effective OCD standard compounds” value (Wistar rats [1]) is given as “suppress schedule-induced polydipsia without producing notable changes in motor patterns, food intake, or behavior the following day”.
With `CN(C)CCCN1c2ccccc2Sc2ccc(Cl)cc21` [chlorpromazine] the marble burying behavior (male NIH Swiss mice [2]) was “decrease marble burying only at doses that also disrupt rotorod performance”.
For `C[C@H](N)Cc1ccccc1` [d-amphetamine], the nestlet shredding (male NIH Swiss mice [3]) was “decreases nestlet shredding only at doses that produce motoric side effects”, the “schedule-induced polydipsia (excessive drinking)” value (Wistar rats [4]) was “decreases excessive drinking only at behaviorally stimulating doses” and the “suppression of excessive drinking with co-administration of the 5-HT2C antagonist” value (Wistar rats [4]) was “not prevented”.
For `CNCCC(Oc1ccc(C(F)(F)F)cc1)c1ccccc1` (stereo not shown) [fluoxetine], the “marble burying (literature)” value (male NIH Swiss mice [5]) is listed as “decrease burying” and the “schedule-induced polydipsia, clinically effective OCD standard compounds” value (Wistar rats [1]) is listed as “suppress schedule-induced polydipsia without producing notable changes in motor patterns, food intake, or behavior the following day”.
